How the values were obtained:
Test in all cases: Growth in liquid media in presence of test compound
Type in all cases: cell-based
[1] = system: Candida albicans (ATCC 90028)
Source text: (§1) Test organisms used were the bacterial strains Escherichia coli (ATCC 25922), Pseudomonas aeruginosa (ATCC 27853), Staphylococcus aureus (ATCC 25923), Streptococcus pyogenes (ATCC 19615), and Mycobacterium tuberculosis (H37Rv), and the yeast strain Candida albicans (ATCC 90028).
(§2) The liquid media used for growth were Luria-Bertani (Becton Dickinson, Sparks, Md.) and Mueller-Hinton (bio-Merieux, Paris, France) broths, but with Saburo medium for Candida and Middlebrook 7H9 medium (Difco) for mycobacteria.
(§3) The strains were grown at 37° C. and after suitable cell concentrations had been reached, 100 μL of each cell suspension was added to a tube with growth media and test compound. Cultivation of the bacteria was then carried out in the presence of each test compound at 37° C. and the tubes examined for visible growth. The compounds were tested at concentrations of either 500 mg/l, 50 mg/l or 5 mg/l. This assay was repeated twice.
(§4) Some compounds were only tested against some test organisms. It will be appreciated that the charge of these molecules will depend on the environment, some of the Examples are shown with a suitable counter ion, some without.

[2] = system: Pseudomonas aeruginosa (ATCC 27853)
Source text: as §1, §2, §3, §4

[3] = system: Staphylococcus aureus (ATCC 25923)
Source text: as §1, §2, §3, §4

[4] = system: Streptococcus pyogenes (ATCC 19615)
Source text: as §1, §2, §3, §4

[5] = system: Mycobacterium tuberculosis (H37Rv)
[6] = system: Escherichia coli (ATCC 25922)
Source text: as §1, §2, §3, §4

SMILES	Growth in the presence of test compound, C. albicans ([1]; 5 mg/L)	Growth in the presence of test compound, C. albicans ([1]; 50 mg/L)	Growth in the presence of test compound, C. albicans ([1]; 500 mg/L)	Growth in the presence of test compound, P. aeruginosa ([2]; 5 mg/L)	Growth in the presence of test compound, P. aeruginosa ([2]; 50 mg/L)	Growth in the presence of test compound, P. aeruginosa ([2]; 500 mg/L)	Growth in the presence of test compound, S. aureus ([3]; 5 mg/L)	Growth in the presence of test compound, S. aureus ([3]; 50 mg/L)	Growth in the presence of test compound, S. aureus ([3]; 500 mg/L)	Growth in the presence of test compound, S. pyogenes ([4]; 5 mg/L)	Growth in the presence of test compound, S. pyogenes ([4]; 50 mg/L)	Growth in the presence of test compound, S. pyogenes ([4]; 500 mg/L)	Growth in the presence of test compound, M. tuberculosis ([5]; 5 mg/L)	Growth in the presence of test compound, M. tuberculosis ([5]; 50 mg/L)	Growth in the presence of test compound, M. tuberculosis ([5]; 500 mg/L)	Growth in the presence of test compound, E. coli ([6]; 5 mg/L)	Growth in the presence of test compound, E. coli ([6]; 50 mg/L)	Growth in the presence of test compound, E. coli ([6]; 500 mg/L)
C[C@@H](B1OC2CC3CC(C3(C)C)[C@@]2(C)O1)[C@@H](Cc1ccccc1)NC(=O)[C@@H]1CCCN1 (stereo partly drawn) [Compound 29]	+	+	±	+	+	±	+	+	−	+	+	−	+	+	−			
CC1(C)C2CC3OB([C@@H](CNC(=O)[C@@H](N)CCCCN)Cc4ccc5ccccc5c4)O[C@]3(C)C1C2 (stereo partly drawn) [Compound 21]	+	+	±	+	+	±	+	±	+	+	+	±	−	−	−	+	+	+
CC1(C)C2CC3OB([C@H](CCc4ccccc4)CNC(=O)[C@@H](N)Cc4ccccc4)O[C@]3(C)C1C2 (stereo partly drawn) [Compound 18]	+	±	±	+	±	±	+	−	±	+	±	±	+	−	−	+	+	+
NCCCC[C@H](N)C(=O)NC[C@@H](Cc1ccccc1)B(O)O [Compound 38]	+	+	±	+	+	+	+	+	±	+	+	−	−	−	−	+	+	±
CC1(C)C2CC3OB(CC(CCc4ccccc4)NC(=O)C(N)CCCCN)OC3(C)C1C2 (stereo not drawn) [Compound 7]	+	+	−	+	+	±	+	+	−	+	+	−	+	+	−	+	+	−
Cl.Cl.NCCCC[C@H](N)C(=O)NC[C@@H](Cc1ccc(F)cc1)B(O)O [Compound 46]	+	+	±	+	+	+	+	+	+	+	+	+	−	−	−	+	+	+
CC1(C)C2CC3OB([C@@H](CNC(=O)[C@@H](N)CCCCN)Cc4ccccc4)O[C@]3(C)C1C2 (stereo partly drawn) [Compound 9]	+	+	−	+	+	±	+	+	−	+	+	−	−	−	−			
CC1(C)C2CC3OB(CC(Cc4ccccc4)NC(=O)C(N)CCCNC(=N)N)OC3(C)C1C2 (stereo not drawn) [Compound 4]	+	+	−				+	+	−	+	+	−	+	−	−	+	+	−
